Consider one molecule from ChEMBL document CHEMBL5241066, “Research progress of MEK1/2 inhibitors and degraders in the treatment of cancer” (Eur J Med Chem, 2021).

The subject of this experiment is KE-37. Description: Anticancer activity against human KE-37 cells assessed as reduction in cell viability. It counts as functional, cell-based.

The structures appear in SMILES notation.

As for `C=CCc1cccc(/C=N/NC(=O)CN2CCN(Cc3ccccc3)CC2)c1O` [PAC-1], the IC50 came out at 242 nM.

By IC50 is commonly meant the midpoint of a concentration-inhibition curve.
